# Counter-ions that a name gives are not always drawn. Like-named read-outs stand apart in the source and are kept apart here.
# Key:
# [1] = target: T1, purified recombinant human PKD1 (Homo sapiens, UniProt Q15139); assay: radiometric PKD kinase activity assay; format: biochemical
# T1 sequence (Q15139 1-912): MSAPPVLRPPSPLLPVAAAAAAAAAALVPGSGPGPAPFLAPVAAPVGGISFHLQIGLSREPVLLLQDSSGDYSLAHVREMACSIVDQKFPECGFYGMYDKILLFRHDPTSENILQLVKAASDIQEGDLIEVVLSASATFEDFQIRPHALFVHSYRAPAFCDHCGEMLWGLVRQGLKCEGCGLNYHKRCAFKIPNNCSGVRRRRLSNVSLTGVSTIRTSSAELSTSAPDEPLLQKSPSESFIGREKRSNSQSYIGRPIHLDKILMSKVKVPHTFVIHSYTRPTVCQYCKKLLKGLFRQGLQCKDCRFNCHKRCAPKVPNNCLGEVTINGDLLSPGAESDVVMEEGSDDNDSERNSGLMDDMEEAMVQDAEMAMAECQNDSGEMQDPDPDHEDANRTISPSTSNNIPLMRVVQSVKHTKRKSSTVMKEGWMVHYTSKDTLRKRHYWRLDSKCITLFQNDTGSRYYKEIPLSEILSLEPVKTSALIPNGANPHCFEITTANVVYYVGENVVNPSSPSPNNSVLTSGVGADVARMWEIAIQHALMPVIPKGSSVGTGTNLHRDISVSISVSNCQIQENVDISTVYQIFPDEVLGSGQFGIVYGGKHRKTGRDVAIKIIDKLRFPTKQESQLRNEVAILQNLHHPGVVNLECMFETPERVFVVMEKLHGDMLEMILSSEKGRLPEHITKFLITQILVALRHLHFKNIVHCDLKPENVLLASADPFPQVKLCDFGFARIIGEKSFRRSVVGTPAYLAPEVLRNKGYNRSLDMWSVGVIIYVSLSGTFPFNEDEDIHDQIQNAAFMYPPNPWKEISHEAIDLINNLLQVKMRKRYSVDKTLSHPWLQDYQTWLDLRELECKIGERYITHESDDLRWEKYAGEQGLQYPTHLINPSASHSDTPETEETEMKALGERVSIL
# Experimental: The radiometric PKD kinase assay was carried out by co-incubating 0.5 μCi γ-32P-ATP (PerkinElmer, Boston, Mass.), 20 μM ATP, 50 ng purified recombinant human PKD (PKD1, PKD2, PKD3) proteins, and 2.5 μg Syntide-2 (Sigma) in 50 μl kinase buffer that contains 50 mM Tris-HCl, pH 7.5, 4 mM MgCl2, 10 mM β-mercaptoethanol. The reaction was carried out under sub-saturation conditions, such that the initial rate was within linear kinetic range. The reaction mixture was incubated at 30° C. for 10 min, followed by spotting 25 μl of the mix onto a Whatman P81 filter paper (Whatman Inc, Clifton, N.J.). The filter papers were then washed three times in 0.5% phosphoric acid, air-dried, and counted using a Beckman LS6500 multi-purpose scintillation counter (Beckman, Fullerton, Calif.).
# [2] = read-out: IC50 radiometric PKD1
structure (smiles),measurement,setting,value
CC(C)(C)[Si](C)(C)Oc1ccc2oc3c(c2c1)CCCNC3=O,melting point,,209 to 212 °C
CC(C)(C)[Si](C)(C)Oc1ccc2oc(=O)c3c(c2c1)CCCN3,melting point,,117 to 119 °C
"O=C1NCCSc2c1sc1cnc(O)nc21 (as salt: hydrochloride) [kmg-NB4-69A, 2-Hydroxy-7H,8H,9H-1,4-thiazepino[7′,6′-5,4]thiopheno[3,2-d]pyrimidin-6-one]",melting point,,335.9 °C (dec.)
"COc1ccc2oc3c(c2c1)CCCNC3=O [kb-NB77-56, 7-Methoxy-2,3,4,5-tetrahydro-[1]benzoxolo[2,3-c]azepin-1-one]",melting point,,261 to 263 °C
"C=CCOc1ccc2oc(=O)c3c(c2c1)CCCN3 [kb-NB77-83, 9-Allyloxy-1,2,3,4-tetrahydrochromeno[3,4-b]pyridin-5-one]",melting point,,90 to 91 °C
"C=CCOc1ccc2oc3c(c2c1)CCCNC3=O [kb-NB77-84, 7-Allyloxy-2,3,4,5-tetrahydro-[1]benzoxolo[2,3-c]azepin-1-one]",IC50,"[1]; radiometric kinase activity assay, in vitro, read-out: IC50 PKD1",123 nM
same,melting point,,198 to 200 °C
"O=C(OCc1ccccc1)N1CCCc2c1c(=O)oc1ccc(O)cc21 [kb-NB77-91, Phenylmethyl 9-hydroxy-5-oxo-1,2,3,4-tetrahydrochromeno[3,4-b]pyridine-4-carboxylate]",melting point,,235 to 237 °C
"COc1ccc2oc3c(c2c1)CCCN(C)C3=O [kb-NB96-04, 7-Methoxy-2-methyl-3H,4H,5H-azepino[5,6-d]benzo[b]furan-1-one]",melting point,,150 to 151 °C
"O=c1oc2ccc(O)c(Cl)c2c2c1NCCC2 [kb-NB96-47-1, 10-Chloro-9-hydroxy-1,2,3,4-tetrahydrochromeno[3,4-b]pyridin-5-one]",melting point,,211 to 213 °C
"O=C1NCCc2c1oc1ccc(O)cc21 [kb-NB123-23A, 6-Hydroxy-2,3,4-trihydrobenzo[b]pyridino[4,3-d]furan-1-one]",melting point,,265 to 268 °C
"CC(=O)Oc1ccc2oc3c(c2c1)CCCNC3=O [kb-NB123-36, 7-Acetoxy-2,3,4,5-tetrahydro-[1]benzoxolo[2,3-c]azepin-1-one]",melting point,,196 to 197 °C
"COc1ccc2oc3c(c2c1)CCN(C)C3=O [kb-NB123-37, 6-Methoxy-2-methyl-2,3,4-trihydrobenzo[b]pyridino[4,3-d]furan-1-one]",melting point,,168 to 172 °C
"CC(=O)Oc1ccc2oc3c(c2c1)CCCN(C(C)=O)C3=O [kb-NB123-45-1, 2-Acetyl-1-oxo-3H,4H,5H-azepino[5,6-d]benzo[b]furan-7-yl acetate]",melting point,,155 to 157 °C
"O=C1NCCSc2c1sc1ccc(OCc3ccccc3)cc21 [kb-NB123-66, 3,4-Dihydro-9-benzyloxy-[1]benzothieno[2,3-f]-1,4-thiazepin-5(2H)-one]",melting point,,247 to 249 °C
"CN1CCCc2c(oc3ccc(O)cc23)C1=O [kb-NB142-25, 7-Hydroxy-2-methyl-3,4,5-trihydro-[1]benzoxolo[2,3-c]azepin-1-one]",melting point,,282 to 284 °C
"Oc1ccc2oc3c(c2c1)CCCN1CCN=C31 [kb-NB165-15, 5H,6H,7H-Benzo[b]2-imidazolino[1′,2′-7,1]azepino[5,6-d]furan-9-ol]",IC50 PKD1,"[1]; radiometric kinase activity assay, in vitro",No inhibition
same,melting point,,230 to 232 °C (dec.)
"COc1ccc2sc3c(c2c1)SCCN(C)C3=O [kb-NB165-16, 2,3-Dihydro-4-Methyl-9-methoxy-[1]benzothieno[2,3-f]-1,4-thiazepin-5(2H)-one]",IC50,[1]; [2],4570 ± 780 nM
same,melting point,,160 to 161 °C
"CN1CCSc2c(sc3ccc(O)cc23)C1=O [kb-NB165-17, 2,3-Dihydro-4-methyl-9-hydroxy-[1]benzothieno[2,3-f]-1,4-thiazepin-5-one]",IC50,[1]; [2],450 ± 50 nM
same,melting point,,265 to 268 °C
"NCCN1CCSc2c(sc3ccc(O)cc23)C1=O [kb-NB165-75, 2,3-Dihydro-4-(2-aminoethyl)-9-hydroxy-[1]benzothieno[2,3-f]-1,4-thiazepin-5-one]",IC50,[1]; [2],757 nM
same,melting point,,250 to 254 °C
"c1ccc(COc2ccc3sc4c(c3c2)SCCNC4)cc1 [kb-NB165-81, 2,3,4,5-Tetrahydro-9-benzyloxy-[1]benzothieno[2,3-f]-1,4-thiazepine]",IC50,[1]; [2],39600 nM
same,melting point,,144 to 145 °C
"Oc1ccc2sc3c(c2c1)SCCNC3 [kb-NB165-83, 2,3,4,5-Tetrahydro-9-hydroxy-[1]benzothieno[2,3-f]-1,4-thiazepine]",IC50,[1]; [2],16400 nM
same,melting point,,182 to 184 °C (dec.)
"O=C1NCCCSc2c1sc1ccc(OCc3ccccc3)cc21 [kb-NB165-89, 2,3,4,5-Tetrahydro-10-benzyloxybenzo[b]thieno[2,3-f]-1,5-thiazocin-6-one]",IC50,[1]; [2],21700 nM
same,melting point,,198 to 199 °C
"O=C1NCCSc2c1[s+]([O-])c1ccc(O)cc21 (stereo not shown) [kb-NB184-22, 3,4-Dihydro-9-hydroxy-6-oxide-[1]benzothieno[2,3-f]-1,4-thiazepin-5(2H)-one]",melting point,,160 to 163 °C (dec.)
"COc1ccc2c(c1)c1c([s+]2[O-])C(=O)NCCS1 (stereo not shown) [kb-NB184-25, 3,4-Dihydro-9-methoxy-6-oxide-[1]benzothieno[2,3-f]-1,4-thiazepin-5(2H)-one]",IC50,[1]; [2],1080 nM
same,melting point,,284 to 287 °C
"O=C1NCCCOc2c1sc1ccc(OCc3ccccc3)cc21 [kb-NB184-36, 2,3,4,5-Tetrahydro-10-benzyloxybenzo[b]thieno[2,3-f]-1,5-oxazocin-6-one]",melting point,,195 to 200 °C
"O=C1NCCSc2c1sc1c(OCc3ccccc3)cccc21 [kb-NB184-38, 3,4-Dihydro-7-benzyloxy-[1]benzothieno[2,3-f]-1,4-thiazepin-5(2H)-one]",melting point,,213 to 215 °C
"O=C1NCCSc2c1sc1c(O)cccc21 [kb-NB184-40, 3,4-Dihydro-7-hydroxy-[1]benzothieno[2,3-f]-1,4-thiazepin-5(2H)-one]",melting point,,269 to 272 °C (dec.)
"COc1cccc2c3c(sc12)C(=O)NCCS3 [kb-NB184-44, 3,4-Dihydro-7-methoxy-[1]benzothieno[2,3-f]-1,4-thiazepin-5(2H)-one]",melting point,,220 to 224 °C
"COc1ccc2sc3c(c2c1)[S+]([O-])CCNC3=O (stereo not shown) [kb-NB184-45, 3,4-Dihydro-9-methoxy-1-oxide-[1]benzothieno[2,3-f]-1,4-thiazepin-5(2H)-one]",melting point,,215 to 217 °C
"O=C1NCCSc2c1sc1ccc(O)c(Br)c21 [kb-NB184-52, 3,4-Dihydro-9-hydroxy-10-bromo-[1]benzothieno[2,3-f]-1,4-thiazepin-5(2H)-one]",IC50,[1]; [2],48 nM
same,melting point,,235 to 238 °C (dec.)
"COc1ccc2sc3c(c2c1)OCCCNC3=O [kb-NB184-57, 2,3,4,5-Tetrahydro-10-methoxybenzo[b]thieno[2,3-f]-1,5-oxazocin-6-one]",melting point,,233 to 237 °C
"COC(=O)c1sc2ccc(OC)cc2c1NCCCO [kb-NB184-80, Methyl 3-(3-hydroxypropylamino)-5-methoxybenzo[b]thiophene-2-carboxylate]",IC50 radiometric PKD1,[1],not inhibitory
same,melting point,,116 to 120 °C
"COc1nc(OC)c2sc3c(c2n1)SCCNC3=O [kmg-NB5-13C, 2,4-Dimethoxy-7H,8H,9H-1,4-thiazepino[7′,6′-5,4]thiopheno[3,2-d]pyrimidin-6-one]",melting point,,288 °C (dec.)
"COc1nc(O)c2sc3c(c2n1)SCCNC3=O [kmg-NB5-15A, 4-Hydroxy-2-methoxy-7H,8H,9H-1,4-thiazepino[7′,6′-5,4]thiopheno[3,2-d]pyrimidin-6-one]",IC50,[1]; [2],> 30000 nM
same,melting point,,295 °C (dec.)
"Nc1ccc2sc3c(c2c1)SCCNC3=O [mcf292-03, 3,4-Dihydro-9-amino-[1]benzothieno[2,3-f]-1,4-thiazepin-5(2H)-one]",IC50,[1]; [2],3170 nM
same,melting point,,198.6 to 199 °C
"O=C1NCCSc2c1sc1ccc(N=C=S)cc21 [mcf292-05, 3,4-Dihydro-9-isothiocyanato-[1]benzothieno[2,3-f]-1,4-thiazepin-5(2H)-one]",IC50,[1]; [2],2770 nM
same,melting point,,253 to 253.3 °C
"O=C(CCl)Nc1ccc2sc3c(c2c1)SCCNC3=O [mcf292-09, 3,4-Dihydro-9-(2-chloroacetamido)-[1]benzothieno[2,3-f]-1,4-thiazepin-5(2H)-one]",IC50,[1]; [2],1500 nM
same,melting point,,229 to 230 °C (dec.)
